Reference: US9458141B2, “Low molecular weight thyroid stimulating hormone receptor (TSHR) agonists” (The United States of America, as represented by the …, priority 2008, dated 2016)
Like-named read-outs stand apart in the source and are kept apart here.

Columns and labels:
[1] = biological target: T1, human TSHR (Homo sapiens, UniProt P16473); assay: Confirmatory cAMP assay, HEK EM 293 cells stably expressing TSHR; type: cell-based; conditions: 1 h incubation, 1 mM IBMX
T1 construct: expressed in transfected cells
Excerpt: cDNA for human TSHR was amplified by PCR from hTSHR-pSVL (1) and inserted into the pcDNA3.1(−)/hygromycin vector using restriction sites XhoI and BamHI. cDNA for human LHCGR was amplified by PCR from hLHR-pGS5 (2) and was inserted into the pcDNA3.1(+)/hygromycin vector using restriction sites BamHI and XhoI. The FSHR cDNA in pcDNA3.1 was obtained from the Missouri S&T cDNA Resource Center (www.cDNA.org) and was subcloned into the pcDNA3.1(−)/hygromycin vector. Constructs were confirmed by sequencing (MWG Biotech). HEK-EM 293 cells were transfected with the cDNA of TSHR, LHCGR or FSHR using FuGENE 6 Transfection reagent (Roche Diagnostics) according to the manufacturer's protocol. Two days after transfection cells were passaged and grown in Dulbecco's modified Eagle's Medium (DMEM) supplemented with 10% fetal bovine serum, 100 units/ml penicillin and 10 μg/ml streptomycin (Life Technologies Inc.) and with hygromycin (250 μg/ml) as a selection marker. After 7 to 10 days hygromycin-resistant clones were selected, and after a few days of further growth submitted for a cAMP assay to identify clones that stably express the appropriate receptor. Cell Culture. Cells stably expressing TSHR, LHCGR or FSHR and parental HEK 293 cells were maintained in DMEM medium containing 10% FBS, 100 units/ml Penicillin, 100 μg/ml Streptomycin, at 37° C. in 5% CO2. For the cells lines stably expressing TSHR, LHCGR or FSHR, additional 250 μg/ml Hygromycin was added during the cell culture. The cells were seeded at a density of 3 to 4 million cells in a T175 flask containing 35 ml of media and were allowed to grow for 3 days to reach 80-90% confluence. A flask of HEK 293 cells at this density generally yielded 30 million cells total. Homogeneous Time Resolved Fluorescence (HTRF) cAMP Assay. Compounds were assayed using a HTRF cAMP detection kit (Cisbio, Bedford, Mass.) on both TSHR cell line and parental cell line. Briefly, 750 cells were plated in 2.5 μl/well of complete media (DMEM containing 10% FCS) in 1536 well solid bottom white plates and 20 nl/well compound in DMSO solution or controls was added. Following 30 minute incubation at room temperature, 2.5 μl/well of labeled d2 cAMP and 2.5 μl/well of anti-cAMP antibody (both diluted 1:20 in lysis buffer) were added to each well using a flying reagent dispenser (Aurora Discovery, San Diego). Plates were measured using the Envision plate reader (PerkinElmer, Boston, Mass.) with excitation at 330 nm and emissions of 615 nm and 660 nm. Compound Preparation. […] Data Analysis. […] The EC50 values of compounds were calculated from the concentration-response curves by nonlinear regression analysis using Prism software (GraphPad Software, San Diego, Calif.). Confirmatory cAMP Assay and Test for Selectivity Towards TSHR 50,000 cells/well were plated in complete media (DMEM containing 10% FCS) in 96 well plates. […] Following aspiration of the medium after incubation with compounds, cells were lysed using lysis buffer of the cAMP-Screen Direct™ System (Applied Biosystems, Cat # CSD200). The cAMP content of the cell lysate was determined using the manufacturer's protocol. […] Below is a List of Compounds that were Assayed via the Homogeneous Time Resolved Fluorescence (HTRF) cAMP Assay.

[2] = biological target: T1, human TSHR; assay: Homogeneous Time Resolved Fluorescence (HTRF) cAMP assay, TSHR cell line; type: cell-based; conditions: for Maximum Activity compared to TSH: 100% activity = response of 30 mU/ml TSH, 0% = DMSO control, in %; for AC50: HTRF cAMP, TSHR cell line, 30 minute incubation

T1 sequence (P16473 21-764): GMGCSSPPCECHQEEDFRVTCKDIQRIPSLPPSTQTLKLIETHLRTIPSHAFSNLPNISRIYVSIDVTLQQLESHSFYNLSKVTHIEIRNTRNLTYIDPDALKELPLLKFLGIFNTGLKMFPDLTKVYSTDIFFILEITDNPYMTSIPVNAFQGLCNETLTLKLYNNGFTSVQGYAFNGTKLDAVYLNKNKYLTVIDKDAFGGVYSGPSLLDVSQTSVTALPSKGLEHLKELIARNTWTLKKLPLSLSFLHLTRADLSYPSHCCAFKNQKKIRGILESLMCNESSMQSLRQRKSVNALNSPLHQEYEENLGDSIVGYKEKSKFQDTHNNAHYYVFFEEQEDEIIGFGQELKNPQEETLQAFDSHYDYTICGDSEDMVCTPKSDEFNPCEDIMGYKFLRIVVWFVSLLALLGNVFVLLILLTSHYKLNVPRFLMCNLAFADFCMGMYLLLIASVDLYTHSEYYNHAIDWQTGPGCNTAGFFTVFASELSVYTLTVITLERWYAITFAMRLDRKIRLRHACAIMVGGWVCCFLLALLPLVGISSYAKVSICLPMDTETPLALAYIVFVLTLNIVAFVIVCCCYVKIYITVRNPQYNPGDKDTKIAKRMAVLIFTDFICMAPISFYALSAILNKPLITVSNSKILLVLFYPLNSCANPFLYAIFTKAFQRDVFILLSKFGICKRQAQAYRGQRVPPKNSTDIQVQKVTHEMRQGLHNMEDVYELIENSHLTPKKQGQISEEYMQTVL

Maximum Activity compared to TSH [2] | AC50 ([2]; read-out: AC50) | AC50 [2] | Compound | also measured
– | – | – | COc1ccc(C2Nc3ccccc3C(=O)N2Cc2ccco2)cc1COc1ccc(NC(C)=O)cc1 (stereo not shown) [Compound 3, N-(4-(5-(3-(Furan-2-ylmethyl)-4-oxo-1,2,3,4-tetrahydroquinazolin-2-yl)-2-methoxybenzyloxy)phenyl)acetamide] | EC50 [1]: 0.59 µM
– | – | – | COc1ccc(-c2nc3ccccc3c(=O)n2Cc2ccco2)cc1COc1ccc(NC(C)=O)cc1 [Compound 3/1, N-(4-(5-(3-(Furan-2-ylmethyl)-4-oxo-3,4-dihydroquinazolin-2-yl)-2-methoxybenzyloxy)phenyl)acetamide] | EC50 [1]: 0.1 µM
– | – | – | COc1ccc(C2Nc3ccccc3C(=O)N2Cc2ccccc2)cc1COc1ccc(NC(C)=O)cc1 (stereo not shown) [Compound 3/2, N-(4-(5-(3-Benzyl-4-oxo-1,2,3,4-tetrahydroquinazolin-2-yl)-2-methoxybenzyloxy)phenyl)acetamide] | EC50 [1]: 0.541 µM
– | – | – | COc1ccc(C2Nc3cccc(O)c3C(=O)N2Cc2ccccc2)cc1COc1ccc(NC(C)=O)cc1 (stereo not shown) [Compound 3/4, N-(4-(5-(3-Benzyl-5-hydroxy-4-oxo-1,2,3,4-tetrahydroquinazolin-2-yl)-2-methoxybenzyloxy)phenyl)acetamide] | EC50 [1]: 0.025 µM
– | – | – | COc1ccc(C2Nc3ccccc3C(=O)N2Cc2ccccc2)cc1CSc1ccc(NC(C)=O)cc1 (stereo not shown) [Compound 3/5, N-(4-(5-(3-Benzyl-4-oxo-1,2,3,4-tetrahydroquinazolin-2-yl)-2-methoxybenzylthio)phenyl)acetamide] | EC50 [1]: 0.038 µM
21.50 | 28.2 µM | – | COc1ccc(C2Nc3ccccc3C(=O)N2C2CCCC2)cc1COc1ccc(NC(C)=O)cc1 (stereo not shown) [Structure 258] | –
– | – | inactive | COc1ccc(C2Nc3ccccc3C(=O)N2Cc2ccccc2)cc1COc1cccc(Cl)c1 (stereo not shown) [Structure 259] | –
– | – | inactive | COc1ccc(O)c(C2Nc3ccccc3C(=O)N2Cc2ccccc2)c1 (stereo not shown) [Structure 260] | –
– | – | inactive | COc1ccc(-c2nc3ccc(NC(=O)COC(C)=O)cc3c(=O)n2Cc2ccccc2)cc1COc1ccc(NC(C)=O)cc1 [Structure 261] | –
– | – | inactive | COc1ccc(C2Nc3ccccc3C(=O)N2Cc2ccccc2)cc1COc1ccc(NC(=O)c2ccccc2)cc1 (stereo not shown) [Structure 263] | –
– | – | inactive | COc1ccc(C2Nc3ccccc3C(=O)N2Cc2ccccc2)cc1COc1ccc(NC(=O)c2ccccc2)cc1 (stereo not shown) [Structure 264] | –
24.00 | 6.31 µM | – | COc1ccc(C2Nc3ccccc3C(=O)N2Cc2ccccc2C(F)(F)F)cc1COc1ccc(NC(C)=O)cc1 (stereo not shown) [Structure 265] | –
– | – | inactive | COc1ccc(C2Nc3ccccc3C(=O)N2Cc2ccco2)cc1COc1ccccc1 (stereo not shown) [Structure 266] | –
24.50 | 7.94 µM | – | COc1ccc(C2N(Cc3ccccc3)C(=O)c3ccccc3N2C)cc1COc1ccc(NC(C)=O)cc1 (stereo not shown) [Structure 267] | –
– | – | inactive | CC(C)c1ccc(C2C3=C(CC(c4ccco4)CC3=O)Nc3nc(C(F)(F)F)nn32)cc1 (stereo not shown) [Structure 268] | –
28.00 | 25.1 µM | – | COc1ccc(C2Nc3ccccc3C(=O)N2Cc2ccccn2)cc1COc1ccc(NC(C)=O)cc1 (stereo not shown) [Structure 269] | –
– | – | inactive | COc1ccc(C2Nc3ccccc3C(=O)N2Cc2ccccc2)cc1COc1ccc(C(N)=O)cc1 (stereo not shown) [Structure 270] | –
– | – | inactive | COc1ccc(CN(Cc2ccccc2)C(=O)c2ccccc2O)cc1 [Structure 271] | –
– | – | inactive | COc1ccc(C2Nc3ccccc3C(=O)N2Cc2ccccc2)cc1COc1ccc(F)cc1 (stereo not shown) [Structure 272] | –

Maximum Activity compared to TSH [2] | AC50 ([2]; read-out: AC50) | AC50 [2] | Compound | also measured
11.00 | 2.51 µM | – | COc1ccc(C2Nc3ccccc3C(=O)N2Cc2ccccc2Cl)cc1COc1ccc(NC(C)=O)cc1 (stereo not shown) [Structure 273] | –
28.00 | 20 µM | – | COc1ccc(C2Nc3cccc(OC)c3C(=O)N2Cc2ccccc2)cc1COc1ccc(NC(C)=O)cc1 (stereo not shown) [Structure 274] | –
23.50 | 7.94 µM | – | CCC(=O)Nc1ccc(OCc2cc(C3Nc4ccccc4C(=O)N3Cc3ccccc3)ccc2OC)cc1 (stereo not shown) [Structure 275] | –
32.00 | 25.1 µM | – | COc1ccc(C2Nc3ccccc3C(=O)N2CC(C)(C)C)cc1COc1ccc(NC(C)=O)cc1 (stereo not shown) [Structure 276] | –
– | – | inactive | O=C(c1ccccc1O)N(Cc1cccs1)Cc1cccs1 [Structure 277] | –
– | – | inactive | COc1ccc(C2Nc3ccccc3C(=O)N2Cc2ccccc2)cc1COc1cccc(Cl)c1 (stereo not shown) [Structure 278] | –
20.50 | 4.47 µM | – | COc1ccc(C2Nc3ccccc3C(=O)N2Cc2ccccc2OC)cc1COc1ccc(NC(C)=O)cc1 (stereo not shown) [Structure 279] | –
– | 17.8 µM | – | COc1ccc(C2Nc3ccccc3C(=O)N2Cc2ccccc2C)cc1COc1ccc(NC(C)=O)cc1 (stereo not shown) [Structure 280] | Emax ([2]; read-out: Maximum Activity compared to TSH, 100% activity = response of 30 mU/ml TSH, 0% = DMSO control): 24%
22.00 | 5.62 µM | – | COc1ccc(C2Nc3ccccc3C(=O)N2Cc2ccccc2C)cc1COc1ccc(NC(C)=O)cc1 (stereo not shown) [Structure 281] | –
– | – | inactive | COc1ccc(C2Nc3ccccc3C(=O)N2Cc2ccco2)cc1COc1ccc(N)cc1 (stereo not shown) [Structure 282] | –
– | – | inactive | COc1ccc(C2Nc3ccccc3C(=O)N2Cc2ccco2)cc1COc1c(C)cccc1C (stereo not shown) [Structure 284] | –
– | – | inactive | COc1ccc(CNCc2ccccc2)cc1COc1ccc(NC(C)=O)cc1 [Structure 285] | –
30.00 | 22.4 µM | – | O=C(c1ccccc1O)N(Cc1ccccc1)Cc1cccs1 [Structure 287] | –
20.50 | 2.24 µM | – | COc1ccc(C2Nc3ccccc3C(=O)N2Cc2cccc3ccccc23)cc1COc1ccc(NC(C)=O)cc1 (stereo not shown) [Structure 288] | –
– | – | inactive | COc1ccc(C2Nc3ccccc3C(=O)N2Cc2ccco2)cc1COc1ccc([N+](=O)[O-])cc1 (stereo not shown) [Structure 289] | –
– | – | inactive | COc1ccc(C2Nc3ccccc3C(=O)N2Cc2ccco2)cc1COc1ccc([N+](=O)[O-])cc1 (stereo not shown) [Structure 290] | –
38.00 | 35.5 µM | – | COc1ccc(CN(Cc2ccccc2)C(=O)c2ccccc2O)cc1 [Structure 291] | –
– | – | inactive | COc1ccc(-c2nc3ccc(NC(=O)CO)cc3c(=O)n2Cc2cccc(Cl)c2)cc1COc1ccc(NC(C)=O)cc1 [Structure 292] | –
– | – | inactive | COc1ccc(CN2C(=O)N(c3ccccc3)C(=O)C2c2ccccc2)cc1COc1ccc(NC(C)=O)cc1 (stereo not shown) [Structure 293] | –
